Results reported in paper PMC7180572, “5-Alkylamino-N-phenylpyrazine-2-carboxamides: Design, Preparation, and Antimycobacterial Evaluation” (Molecules, 2020).
In brackets after ≈: the same amount, converted by molar mass. Like-named read-outs stand apart in the source and are kept apart here.

How the values were obtained:
[1] = tested on: Candida parapsilosis ATCC 22019, CCM 8260; assay: Antifungal microdilution broth method (EUCAST); type: cell-based; settings: Lodderomyces parapsilosis
[2] = tested on: Staphylococcus aureus methicillin resistant ATCC 43300, CCM 4750; assay: microbe, parasite or virus in culture; type: cell-based; settings: ATCC 43300 / CCM 4750 / MRSA, read-out: MIC MRSA
[3] = tested on: Staphylococcus epidermidis ATCC 12228, CCM 4418; assay: Antibacterial microdilution broth method (EUCAST); type: cell-based; settings: read-out: MIC SE
[4] = tested on: Mycobacterium tuberculosis H37Ra ITM-M006710 (ATCC 9431); assay: Microdilution broth, modified Microplate Alamar Blue Assay, whole cell growth inhibition; type: cell-based; settings: Mycobacterium tuberculosis; in vitro, Middlebrook 7H9 broth, resazurin; read-out: MIC Mtb H37Ra
[5] = tested on: Acinetobacter baumanii ATCC 19606, DSM 30007; assay: Antibacterial microdilution broth method (EUCAST); type: cell-based; settings: Acinetobacter baumannii
[6] = tested on: Candida krusei ATCC 6258, CCM 8271; assay: Antifungal microdilution broth method (EUCAST); type: cell-based; settings: Pichia kudriavzevii
[7] = tested on: Aspergillus flavus CCM 8363; assay: Antifungal microdilution broth method (EUCAST); type: cell-based; settings: read-out: MIC AFla
[8] = tested on: Trichophyton interdigitale ATCC 9533, CCM 8377; assay: Antifungal microdilution broth method (EUCAST); type: cell-based; settings: read-out: MIC TI
[9] = tested on: Absidia corymbifera CCM 8077 (Lichtheimia corymbifera); assay: Antifungal microdilution broth method (EUCAST); type: cell-based; settings: read-out: MIC AC
[10] = tested on: Pseudomonas aeruginosa ATCC 27853, CCM 3955; assay: Antibacterial microdilution broth method (EUCAST); type: cell-based; settings: read-out: MIC PA
HepG2 cells = assay: HepG2 cytotoxicity, CellTiter 96 (MTS) assay; type: cell-based, human; settings: for IC50: Homo sapiens, HepG2, 24 h, read-out: HepG2 IC50; for SI, selectivity index: IC50 (HepG2)/MIC against Mtb H37Ra (in µM)
[11] = tested on: Mycobacterium smegmatis DSM 43465 (ATCC 607); assay: Microdilution broth, modified Microplate Alamar Blue Assay, whole cell growth inhibition; type: cell-based; settings: Mycolicibacterium smegmatis, read-out: MIC Mycobacterium smegmatis
[12] = tested on: Staphylococcus aureus spp.aureus ATCC 29213, CCM 4223; assay: Antibacterial microdilution broth method (EUCAST); type: cell-based; settings: read-out: MIC SA
[13] = tested on: Escherichia coli ATCC 25922, CCM 3954; assay: Antibacterial microdilution broth method (EUCAST); type: cell-based; settings: read-out: MIC EC
[14] = tested on: Enterococcus faecalis ATCC 29212, CCM 4224; assay: Antibacterial microdilution broth method (EUCAST); type: cell-based; settings: read-out: MIC EF
[15] = tested on: Candida tropicalis ATCC 750, CCM 8264; assay: Antifungal microdilution broth method (EUCAST); type: cell-based; settings: read-out: MIC CT
[16] = tested on: Klebsiella pneumoniae ATCC 10031, CCM 4415; assay: Antibacterial microdilution broth method (EUCAST)
[17] = tested on: Aspergillus fumigatus ATCC 204305; assay: Antifungal microdilution broth method (EUCAST); type: cell-based; settings: read-out: MIC AF
[18] = tested on: Mycobacterium aurum DSM 43999 (ATCC 23366); assay: Microdilution broth, modified Microplate Alamar Blue Assay, whole cell growth inhibition; type: cell-based; settings: Mycolicibacterium aurum, read-out: MIC Mycobacterium aurum
[19] = tested on: Candida albicans ATCC 24433, CCM 8320; assay: Antifungal microdilution broth method (EUCAST); type: cell-based

CCCCNc1cnc(C(=O)Nc2ccc(C)cc2)cn1 [Compound 4b, 5-(Butylamino)-N-(p-tolyl)pyrazine-2-carboxamide]
MIC ([1]; 24 h, read-out: MIC CP): > 125 µM | MIC ([1]; 48 h, read-out: MIC CP): > 125 µM | MIC ([2]; 24 h): > 125 µM | MIC ([2]; 48 h): > 125 µM | MIC ([3]; 24 h): > 125 µM | MIC ([3]; 48 h): > 125 µM | MIC [4]: ≥ 250 µg/mL | MIC ([5]; 24h): > 125 µM | MIC ([5]; 48h): > 125 µM | MIC ([6]; 24 h, read-out: MIC CK): > 125 µM | MIC ([6]; 48 h, read-out: MIC CK): > 125 µM | MIC ([7]; CCM8363, 24 h): > 125 µM | MIC ([7]; CCM8363, 48 h): > 125 µM | MIC ([8]; 72 h): > 125 µM | MIC ([8]; 120 h): > 125 µM | MIC ([9]; CCM8077, 24 h): > 125 µM | MIC ([9]; CCM8077, 48 h): > 125 µM | melting point: 162.6 to 163.6 °C | MIC ([10]; 72 h): > 125 µM | MIC ([10]; 120 h): > 125 µM | IC50 (HepG2 cells): > 50 µM | MIC [11]: ≥ 250 µg/mL | MIC ([12]; 24 h): > 125 µM | MIC ([12]; 48 h): > 125 µM | MIC ([13]; 24 h): > 125 µM | MIC ([13]; 48 h): > 125 µM | MIC ([14]; 24 h): > 125 µM | MIC ([14]; 48 h): > 125 µM | MIC ([15]; 24 h): > 125 µM | MIC ([15]; 48 h): > 125 µM | MIC KP ([16]; 24h): > 125 µM | MIC KP ([16]; 48h): > 125 µM | MIC ([17]; ATCC204305, 24 h): > 125 µM | MIC ([17]; ATCC204305, 48 h): > 125 µM | MIC [18]: ≥ 250 µg/mL | MIC ([19]; 24 h, read-out: MIC CA): > 125 µM | MIC ([19]; 48 h, read-out: MIC CA): > 125 µM

CCCCCCNc1cnc(C(=O)Nc2ccc(CC)cc2)cn1 [Compound 5d, N-(4-ethylphenyl)-5-(hexylamino)pyrazine-2-carboxamide]
MIC ([1]; 24 h, read-out: MIC CP): > 125 µM | MIC ([1]; 48 h, read-out: MIC CP): > 125 µM | MIC ([2]; 24 h): > 500 µM | MIC ([2]; 48 h): > 500 µM | MIC ([3]; 24 h): > 500 µM | MIC ([3]; 48 h): > 500 µM | MIC [4]: ≥ 500 µg/mL | MIC ([5]; 24h): > 500 µM | MIC ([5]; 48h): > 500 µM | MIC ([6]; 24 h, read-out: MIC CK): > 125 µM | MIC ([6]; 48 h, read-out: MIC CK): > 125 µM | MIC ([7]; CCM8363, 24 h): > 125 µM | MIC ([7]; CCM8363, 48 h): > 125 µM | MIC ([8]; 72 h): > 125 µM | MIC ([8]; 120 h): > 125 µM | MIC ([9]; CCM8077, 24 h): > 125 µM | MIC ([9]; CCM8077, 48 h): > 125 µM | melting point: 138 to 139 °C | MIC ([10]; 72 h): > 500 µM | MIC ([10]; 120 h): > 500 µM | IC50 (HepG2 cells): > 25 µM | MIC [11]: ≥ 500 µg/mL | MIC ([12]; 24 h): > 500 µM | MIC ([12]; 48 h): > 500 µM | MIC ([13]; 24 h): > 500 µM | MIC ([13]; 48 h): > 500 µM | MIC ([14]; 24 h): > 500 µM | MIC ([14]; 48 h): > 500 µM | MIC ([15]; 24 h): > 125 µM | MIC ([15]; 48 h): > 125 µM | MIC KP ([16]; 24h): > 500 µM | MIC KP ([16]; 48h): > 500 µM | MIC ([17]; ATCC204305, 24 h): > 125 µM | MIC ([17]; ATCC204305, 48 h): > 125 µM | MIC [18]: ≥ 500 µg/mL | MIC ([19]; 24 h, read-out: MIC CA): > 125 µM | MIC ([19]; 48 h, read-out: MIC CA): > 125 µM

CCCCNc1cnc(C(=O)Nc2ccc(O)cc2)cn1 [Compound 3b, 5-(Butylamino)pyrazine-N-(4-hydroxyphenyl)-2-carboxamide]
MIC ([1]; 24 h, read-out: MIC CP): 250 µM (≈ 71.6 µg/mL) | MIC ([1]; 48 h, read-out: MIC CP): 250 µM (≈ 71.6 µg/mL) | MIC ([1]; read-out: MIC CP (Candida parapsilosis)): 250 µM (≈ 71.6 µg/mL) | MIC ([2]; 24 h): > 500 µM | MIC ([2]; 48 h): > 500 µM | MIC ([3]; 24 h): > 500 µM | MIC ([3]; 48 h): > 500 µM | MIC [4]: 31.2 µg/mL (≈ 109 µM) | MIC ([5]; 24h): > 500 µM | MIC ([5]; 48h): > 500 µM | MIC ([6]; 24 h, read-out: MIC CK): > 250 µM | MIC ([6]; 48 h, read-out: MIC CK): > 250 µM | MIC ([6]; read-out: MIC CK (Candida krusei)): > 250 µM | MIC ([7]; CCM8363, 24 h): > 250 µM | MIC ([7]; CCM8363, 48 h): > 250 µM | MIC ([8]; 72 h): > 250 µM | MIC ([8]; 120 h): > 250 µM | MIC ([9]; CCM8077, 24 h): > 250 µM | MIC ([9]; CCM8077, 48 h): > 250 µM | melting point: 208 to 211.4 °C | MIC ([10]; 72 h): > 500 µM | MIC ([10]; 120 h): > 500 µM | IC50 (HepG2 cells): 378 µM | SI, selectivity index (HepG2 cells): 3.46 | MIC [11]: ≥ 500 µg/mL | MIC ([12]; 24 h): > 500 µM | MIC ([12]; 48 h): > 500 µM | MIC ([13]; 24 h): > 500 µM | MIC ([13]; 48 h): > 500 µM | MIC ([14]; 24 h): > 500 µM | MIC ([14]; 48 h): > 500 µM | MIC ([15]; 24 h): > 250 µM | MIC ([15]; 48 h): > 250 µM | MIC KP ([16]; 24h): > 500 µM | MIC KP ([16]; 48h): > 500 µM | MIC ([17]; ATCC204305, 24 h): > 250 µM | MIC ([17]; ATCC204305, 48 h): > 250 µM | MIC [18]: ≥ 500 µg/mL | MIC ([19]; 24 h, read-out: MIC CA): 62.5 µM (≈ 17.9 µg/mL) | MIC ([19]; 48 h, read-out: MIC CA): 62.5 µM (≈ 17.9 µg/mL) | MIC ([19]; read-out: MIC CA (Candida albicans)): 62.5 µM (≈ 17.9 µg/mL)

CCCCNc1cnc(C(=O)Nc2cccc(O)c2)cn1 [Compound 2b, 5-(Butylamino)pyrazine-N-(3-hydroxyphenyl)-2-carboxamide]
MIC ([1]; 24 h, read-out: MIC CP): > 125 µM | MIC ([1]; 48 h, read-out: MIC CP): > 125 µM | MIC ([2]; 24 h): > 500 µM | MIC ([2]; 48 h): > 500 µM | MIC ([3]; 24 h): > 500 µM | MIC ([3]; 48 h): > 500 µM | MIC [4]: 7.81 µg/mL (≈ 27.3 µM) | MIC ([5]; 24h): > 500 µM | MIC ([5]; 48h): > 500 µM | MIC ([6]; 24 h, read-out: MIC CK): > 125 µM | MIC ([6]; 48 h, read-out: MIC CK): > 125 µM | MIC ([7]; CCM8363, 24 h): > 125 µM | MIC ([7]; CCM8363, 48 h): > 125 µM | MIC ([8]; 72 h): > 125 µM | MIC ([8]; 120 h): > 125 µM | MIC ([9]; CCM8077, 24 h): > 125 µM | MIC ([9]; CCM8077, 48 h): > 125 µM | melting point: 203 to 204 °C | MIC ([10]; 72 h): > 500 µM | MIC ([10]; 120 h): > 500 µM | IC50 (HepG2 cells): > 25 µM | SI, selectivity index (HepG2 cells): >0.92 | MIC [11]: ≥ 500 µg/mL | MIC ([12]; 24 h): > 500 µM | MIC ([12]; 48 h): > 500 µM | MIC ([13]; 24 h): > 500 µM | MIC ([13]; 48 h): > 500 µM | MIC ([14]; 24 h): > 500 µM | MIC ([14]; 48 h): > 500 µM | MIC ([15]; 24 h): > 125 µM | MIC ([15]; 48 h): > 125 µM | MIC KP ([16]; 24h): > 500 µM | MIC KP ([16]; 48h): > 500 µM | MIC ([17]; ATCC204305, 24 h): > 125 µM | MIC ([17]; ATCC204305, 48 h): > 125 µM | MIC [18]: ≥ 500 µg/mL | MIC ([19]; 24 h, read-out: MIC CA): > 125 µM | MIC ([19]; 48 h, read-out: MIC CA): > 125 µM
